Where “and” joins values, the source holds several entries; their conditions need not be identical. Equal entries are not always repeated. ± gives the expanded uncertainty stated by the source.
Columns and labels:
[1] = Transpiration method
[2] = molar enthalpy of vaporization or sublimation; conditions: 298.15 K, DSC

c1ccc2c(c1)ccc1ccccc12 [phenanthrene]
[1]
Conditions	vapor or sublimation pressure [kPa]
306.2 K, Crystal 2	5e-05 ± 1e-05
309.4 K, Crystal 2	7e-05 ± 1e-05
313.2 K, Crystal 2	0.00012 ± 1e-05
316.3 K, Crystal 2	0.00016 ± 1e-05
319.3 K, Crystal 2	0.00021 ± 1e-05
322.3 K, Crystal 2	0.00031 ± 2e-05
325.2 K, Crystal 2	0.00043 ± 2e-05
328.4 K, Crystal 2	0.00055 ± 3e-05
329.2 K, Crystal 2	0.00063 ± 4e-05
330.7 K, Crystal 2	0.00073 ± 4e-05
334.2 K, Crystal 2	0.00101 ± 5e-05
337.2 K, Crystal 2	0.00135 ± 7e-05
340.3 K, Crystal 2	0.00178 ± 9e-05
343.4 K, Crystal 2	0.00229 ± 0.00012
346.3 K, Crystal 2	0.00306 ± 0.00016
349.4 K, Crystal 1	0.00403 ± 0.00022
352.4 K, Crystal 1	0.00545 ± 0.00029
355.5 K, Crystal 1	0.00705 ± 0.00037
356.8 K, Crystal 1	0.0076 ± 0.0004
358.6 K, Crystal 1	0.00914 ± 0.00048
359.2 K, Crystal 1	0.00907 ± 0.00046
362.3 K, Crystal 1	0.01171 ± 0.00062
365.3 K, Crystal 1	0.01534 ± 0.00082
368.3 K, Crystal 1	0.01988 ± 0.001
370.4 K, Crystal 1	0.02298 ± 0.0012

Conditions	molar enthalpy [kcal/mol]
[2], Crystal 2	22.1 ± 0.717

c1ccc(-c2cccc3ccccc23)cc1 [1-phenylnaphthalene]
[1], Liquid
Conditions	vapor or sublimation pressure
318.5 K	0.00026 ± 2e-05 kPa
323.5 K	0.00038 ± 2e-05 kPa
328.3 K	0.00062 ± 3e-05 kPa
328.4 K	0.0006 ± 3e-05 kPa
333.4 K	0.00092 ± 5e-05 kPa
338 K	0.00136 ± 7e-05 kPa
343.6 K	0.00209 ± 0.00011 kPa and 0.0021 ± 0.00011 kPa
351 K	0.00376 ± 0.0002 kPa
353.1 K	0.00462 ± 0.00024 kPa
358.3 K	0.00644 ± 0.00034 kPa
358.5 K	0.00687 ± 0.00036 kPa
363 K	0.00953 ± 0.0005 kPa
368.3 K	0.01352 ± 0.0007 kPa
371 K	0.01665 ± 0.00087 kPa

Conditions	molar enthalpy [kcal/mol]
[2], Liquid	19.8 ± 0.621

c1ccc(-c2ccccc2-c2ccccc2)cc1 [o-terphenyl]
[1], Liquid
Conditions	vapor or sublimation pressure [kPa]
343.5 K	0.00166 ± 9e-05
345.5 K	0.00195 ± 0.0001
346.4 K	0.0021 ± 0.00011
348.4 K	0.0025 ± 0.00013
349.5 K	0.0027 ± 0.00014
351.5 K	0.00315 ± 0.00016
352.5 K	0.00339 ± 0.00018
355.4 K	0.00427 ± 0.00022
358.4 K	0.00528 ± 0.00028
360.4 K	0.0062 ± 0.00032
361.4 K	0.00658 ± 0.00034
361.5 K	0.00664 ± 0.00035
363.2 K	0.00752 ± 0.00039
365.4 K	0.00888 ± 0.00046
366.4 K	0.00943 ± 0.00049
368.4 K	0.01095 ± 0.00057
369.4 K	0.01187 ± 0.00062
371.4 K	0.01363 ± 0.0007
373.3 K	0.01527 ± 0.00079
374.4 K	0.01677 ± 0.00087
376.3 K	0.01869 ± 0.00097
377.4 K	0.02037 ± 0.0011

Conditions	molar enthalpy [kcal/mol]
[2], Crystal	25.3 ± 0.741
